EC50 data for 28 compounds are collected here from patent publication US20150307461A1, “ANTIVIRAL COMPOUNDS” (priority 2012, published 2015).

Usually EC50 stands for the concentration needed to bring the measured effect to its halfway point.

Bounds are passed on as bounds.

Common to all, as to test: microbe, parasite or virus in culture
Experiment [1] deals with Pseudotyped HCV GT1a particles (HCVpp). It counts as cell-based, HCV GT1a H77 strain. The note with it: Hepatitis C virus, 72 h, read-out: HCVpp GT-1a (EC50, μM).
Experiment [2] deals with pseudotyped VSV G particles (VSVpp). It counts as cell-based. The following applies: Vesicular stomatitis virus, 72 h, read-out: VSVpp (EC50, μM).
The test system of experiment [3] is Pseudotyped HCV GT1b particles (HCVpp). It counts as cell-based, HCV GT1b Con1 strain. The following applies: Hepatitis C virus, 72 h, read-out: HCVpp GT-1b (EC50, μM).

As for `CN(c1cc(Cl)c(Cl)c(Cl)c1)c1n[nH]c(N)n1` [Compound I-27, N*3*-Methyl-N*3*-(3,4,5-trichloro-phenyl)-1H-[1,2,4]triazole-3,5-diamine], the concentration for a half-maximal effect (EC50) was found to be 21.1 µM in experiment [1] and 94.4 µM in experiment [2]. `Cn1nc(N)nc1Nc1cccc(S(F)(F)(F)(F)F)c1` [Compound I-71, 1-Methyl-N*5*-(3-pentafluorosulfur-phenyl)-1H-[1,2,4]triazole-3,5-diamine]: the EC50 in experiment [1] and in experiment [2] was 100 µM in each case. Take `N#Cc1c(F)cc(Nc2nc(N)n[nH]2)cc1F` [Compound I-69, 4-(5-Amino-2H-[1,2,4]triazol-3-ylamino)-2-difluoro-benzonitrile]: the EC50 was found to be 100 µM in experiment [2] and 0.561 µM in experiment [3]. In the case of `Nc1nc(Nc2ccc(S(F)(F)(F)(F)F)cc2)n[nH]1` [Compound I-75, N*3*-(4-pentafluorosulfur-phenyl)-1H-[1,2,4]triazole-3,5-diamine], the EC50 in experiment [1] amounted to 14.3 µM; in experiment [2] it was 100 µM. Consider `N#Cc1c(F)cc(Nc2n[nH]c(N)n2)cc1S(F)(F)(F)(F)F` [Compound I-86, 4-(5-Amino-1H-[1,2,4]triazol-3-ylamino)-2-fluoro-6-pentafluorosulfur-benzonitrile], for which the EC50 in experiment [2] is more than 10 µM; in experiment [3], 0.104 µM. For the compound `Nc1nc(Nc2cc(F)cc(Cl)c2)n[nH]1` [Compound I-61, N^3-(3-Chloro-5-fluoro-phenyl)-1H-[1,2,4]triazole-3,5-diamine], the EC50 in experiment [2] was more than 10 µM; in experiment [3], 0.331 µM. For `N#Cc1c(NN)cc(Nc2n[nH]c(N)n2)cc1S(F)(F)(F)(F)F` [Compound I-87, 4-(5-Amino-1H-[1,2,4]triazol-3-ylamino)-2-hydrazino-6-pentafluorosulfur-benzonitrile] the same measures were more than 10 µM and 1.65 µM.

For the compound `N#Cc1c(F)cc(Nc2nc(N)n[nH]2)cc1C(F)(F)F` [Compound I-68, 4-(5-Amino-2H-[1,2,4]triazol-3-ylamino)-2-fluoro-6-trifluoromethyl-benzonitrile], the figures for the EC50 in experiment [2] and in experiment [3] were 43.3 µM and 0.161 µM, respectively.

Take `N#CC1(c2cccc(Nc3n[nH]c(N)n3)c2)CC1` [Compound I-59, 1-[3-(5-Amino-1H-[1,2,4]triazol-3-ylamino)-phenyl]-cyclopropanecarbonitrile]: the results for the EC50 in experiment [1] and in experiment [2] were 1.46 µM and 100 µM, respectively. `Nc1nc(N(Cc2ccccc2)c2cc(Cl)cc(Cl)c2)n[nH]1` [Compound I-29, N*3*-Benzyl-N*3*-(3,5-dichloro-phenyl)-1H-[1,2,4]triazole-3,5-diamine]: the EC50 in experiment [1] came out at 6.49 µM; in experiment [2], 7.5 µM. As to `Nc1n[nH]c(Nc2cc(F)c(Br)c(C(F)(F)F)c2)n1` [Compound I-45, N^5-(4-bromo-3-fluoro-5-trifluoromethylphenyl)-1H-[1,2,4]-triazole-3,5-diamine], the figures for the half-maximal effective concentration (EC50) in experiment [2] and in experiment [3] were 82.5 µM and 0.095 µM, respectively. `Nc1nc(Nc2cccc(C(F)(F)F)c2F)n[nH]1` [Compound I-53, N^3-(2-Fluoro-3-trifluoromethyl-phenyl)-1H-[1,2,4]triazole-3,5-diamine]: the EC50 in experiment [1] and in experiment [2] was 100 µM throughout. Consider `N#Cc1ccc(Nc2n[nH]c(N)n2)cc1` [Compound I-47, 4-(5-Amino-1H-[1,2,4]triazol-3-ylamino)-benzonitrile], for which the results for the EC50 in experiment [1] and in experiment [2] were 19.6 µM and 100 µM, respectively.

For `Nc1nc(Nc2cc(F)c(Br)c(Cl)c2)n[nH]1` [Compound I-5, N^3-(4-Bromo-3-chloro-5-fluoro-phenyl)-1H-[1,2,4]triazole-3,5-diamine], the EC50 in experiment [2] was 45.5 µM; in experiment [3], 0.536 µM. For the compound `N#Cc1ccc(Nc2n[nH]c(N)n2)cc1S(=O)(=O)C(F)(F)F` [Compound I-34, 4-(5-Amino-1H-[1,2,4]triazol-3-ylamino)-2-trifluoromethanesulfonyl-benzonitrile], the results for the EC50 in experiment [1] and in experiment [2] were 0.2 µM and more than 1 µM, respectively. Take `Nc1nc(Nc2cc(Cl)c(S(=O)(=O)N3CCOCC3)c(Cl)c2)n[nH]1` [Compound I-44, N3-(3,5-dichloro-4-(morpholinosulfonyl)phenyl)-1H-1,2,4-triazole-3,5-diamine]: the EC50 in experiment [2] stood at 100 µM; in experiment [3] it was 0.545 µM. As to `CN(c1cc(Cl)cc(Cl)c1)c1n[nH]c(N)n1` [Compound I-28, N*3*-(3,5-Dichloro-phenyl)-N*3*-methyl-1H-[1,2,4]triazole-3,5-diamine], the figures for the EC50 in experiment [1] and in experiment [2] were 82.8 µM and 100 µM, respectively. For the compound `Nc1nc(Nc2cccc(C(=O)O)c2)n[nH]1` [Compound I-31, 3-(5-Amino-1H-[1,2,4]triazol-3-ylamino)-benzoic acid], the EC50 in experiment [1] and in experiment [2] was 100 µM each time.

Consider `CN(C)C(=O)c1ccc(Nc2n[nH]c(N)n2)cc1Cl` [Compound I-78, 4-(5-Amino-1H-[1,2,4]triazol-3-ylamino)-2-chloro-N,N-dimethyl-benzamide], for which the EC50 worked out at 32.1 µM in experiment [1] and 100 µM in experiment [2].

As to `CS(=O)(=O)Nc1cccc(Nc2n[nH]c(N)n2)c1` [Compound I-33, N-[3-(5-Amino-1H-[1,2,4]triazol-3-ylamino)-phenyl]-methanesulfonamide], the EC50 in experiment [1] and in experiment [2] was 100 µM each time.

As to `N#CCN(c1cc(Cl)cc(Cl)c1)c1n[nH]c(N)n1` [Compound I-30, [(5-Amino-1H-[1,2,4]triazol-3-yl)-(3,5-dichloro-phenyl)-amino]-acetonitrile], the results for the EC50 in experiment [1] and in experiment [2] were 14.5 µM and 100 µM, respectively.

As to `Nc1nc(Nc2cccc(CC(F)(F)F)c2)n[nH]1` [Compound I-55, N^3-[3-(2,2,2-Trifluoro-ethyl)-phenyl]-1H-[1,2,4]triazole-3,5-diamine], the 50% effective concentration (EC50) in experiment [1] came out at 10.3 µM; in experiment [2] it was 100 µM.

Consider `Cn1nc(N)nc1Nc1cc(F)cc(S(F)(F)(F)(F)F)c1` [Compound I-74, N*5*-(3-Fluoro-5-pentafluorosulfur-phenyl)-1-methyl-1H-[1,2,4]triazole-3,5-diamine], for which the 50% effective concentration (EC50) in experiment [1] is 34.3 µM; in experiment [2], 100 µM. Turning to `Cc1ccc(Nc2n[nH]c(N)n2)cc1Cl` [Compound I-76, N^3-(3-Chloro-4-methyl-phenyl)-1H-[1,2,4]triazole-3,5-diamine], the 50% effective concentration (EC50) came out at 0.791 µM in experiment [1] and 100 µM in experiment [2]. `Nc1nc(Nc2cc(Cl)c(Cc3nnn[nH]3)c(C(F)(F)F)c2)n[nH]1` [Compound I-90, N3-(4-((1H-tetrazol-5-yl)methyl)-3-chloro-5-(trifluoromethyl)phenyl)-1H-1,2,4-triazole-3,5-diamine]: the figures for the EC50 in experiment [1] and in experiment [2] were 24.4 µM and 100 µM, respectively. The matching figures for `Nc1nc(Nc2cccc(S(F)(F)(F)(F)F)c2)n(C2CCCCC2)n1` [Compound I-72, Cyclohexyl-N*5*-(3-pentafluorosulfur-phenyl)-1H-[1,2,4]triazole-3,5-diamine]: 36.1 µM and 68.3 µM. `Nc1nc(Nc2cccc(C(=O)c3ccccc3)c2)n[nH]1` [Compound I-58, [3-(5-Amino-1H-[1,2,4]triazol-3-ylamino)-phenyl]-phenyl-methanone]: the concentration giving a half-maximal response (EC50) in experiment [1] worked out at 4.08 µM.

In the case of `Nc1nc(Nc2cccc(Cl)c2Cl)n[nH]1` [Compound I-49, N^3-(2,3-Dichloro-phenyl)-1H-[1,2,4]triazole-3,5-diamine], the EC50 in experiment [1] and in experiment [2] was 100 µM in each case.
